The values that follow come from patent US20250255856A1, “THERAPEUTIC COMPOSITIONS WITH IMINO SUGARS FOR THE TREATMENT OF DISEASES WITH ACCUMULATION OF HEPARAN SULFATE” (priority 2022, published 2025).

Where a name gives a salt, the structure may show the parent alone.

Assay [1] concerns NAGLU-silenced clone (cl5) of human neuroblastoma cell line SK-NBE. Put plainly: Heparan sulfate (HS) immunofluorescence in NAGLU-silenced SK-NBE clone, Sanfilippo B model. It counts as cell-based. The note with it: 48 hours; for Cells positive for HS (%) / Relative HS fluorescence intensity: cl5 clone, 20 μM; for Effect on HS staining / HS accumulation, in words: clone 5, 20 μM. An excerpt:
(§1) To study the effects of the compounds on the lysosomal dysfunctions in a neuronal model of Sanfilippo B disease (MPS IIIB), we recently generated stable clones of the human neuroblastoma cell line SK-NBE silenced for the NAGLU gene causative of MPS IIIB [De Pasquale V, et al. (2021). Biochim Biophys Acta Mol Cell Res. 1868, 119113.]. Mimicking the features of Sanfilippo B disease, silencing of NAGLU causes accumulation of heparan sulfate and accumulation of lysosomes in the cytoplasm of stable SK-NBE clones compared to the control (WT) clone.
Clone 5 was grown in the presence of 20 μM of each L-iminosugar under normal growth conditions and after 48 hours the accumulation of heparan sulfate (HS) was evaluated by immunofluorescence staining for HS.

For assay [2], the system named is control clone (WT) of human neuroblastoma cell line SK-NBE. The assay can be described thus: Lamp1 immunofluorescence in control (WT) SK-NBE clone. The conditions noted are these: 20 μM, 48 hours. It counts as cell-based.
From the text: as §1
(§2) Therefore, NAGLU-silenced clone (c15) and control clone (WT) were selected to test the effect of L-deoxyminosugars (L-DNJ, L-NBDNJ, L-NNDNJ, L-HPDNJ, L-NPDNJ, L-AMPDNM and L-MONDNJ) in the hydrochloride form on the lysosomal phenotype of our cell model of Sanfilippo B (MPS IIIB).
(§3) Clone 5 was cultured in the presence of 20 μM of each L-deoxyminosugar under normal growth conditions and after 48 hours the lysosomal accumulation was evaluated with immunofluorescence technique by using a specific antibody against Lamp1 (lysosomal marker). […] Furthermore, upon treatment with the active L-deoxyminosugar the lysosomes are no longer concentrated in the perinuclear region of the cells, as occurs in several lysosomal diseases, but they are physiologically distributed throughout the cytoplasm.

Assay [3] concerns fibroblasts of patients affected by Sanfilippo A (MPS IIIA). The assay can be described thus: HS and Lamp1 immunofluorescence in Sanfilippo A patient fibroblasts. It counts as cell-based, human. The note with it: 20 μM, 48 hours; for Relative fluorescence intensity compared to HDFa, HS / Relative fluorescence intensity compared to HDFa, Lamp1: MPS-IIIA fibroblasts; for Effect on HS and lysosome (Lamp1) accumulation, in words: Sanfilippo A (MPS IIIA) patient fibroblasts. An excerpt:
(§4) To verify whether the selected iminosugars could exert the same effects also on the fibroblasts of patients affected by Sanfilippo disease, human adult dermal fibroblasts HDFa (purchased from Sigma-Aldrich) were used as control, and fibroblasts of patients affected by Sanfilippo A and B (MPS IIIA and IIIB) were used as disease model.
(§5) The human cell lines, fibroblasts, from patients with MPS (Sanfilippo disease) used in the examples were obtained from the G. Gaslini Institute of Genoa, “Cell Line and DNA Biobank from Patients Affected by Genetic Diseases”-Telethon Genetic Biobank Network—Telethon research service. These cells are classified with identification codes and by type of disease without allowing patient identification. Cells were collected from the patients, at the Gaslini Institute, with informed consent to the collection extended to conservation and its possible use, for diagnosis and/or research purposes according to current legislation as required by the guidelines followed by the Telethon biobanks. The Network operates abiding by the Italian Privacy and Data Protection Laws in force, including: Italian Data Protection Authority, Personal Data Protection Code, Legislative Decree no. 196, 30 Jun. 2003, published in Official Gazette No. 174 of the Italian Republic, 29 Jul. 2003; Italian Data Protection Authority, General Authorization for the processing of genetic data, 24 Jun. 2011, published in Official Gazette No. 159 of Italian Republic, 11 Jul. 2011.
(§6) Cells were cultured in the presence of the selected L-iminosugars at a dosage of 20 μM and after 48 hours were treated for HS and Lamp1 immunofluorescence. Treatment with L-iminosugars had no effect on control HDFa (Table 3).
(§7) Cells were grown in the presence of the iminosugars D-DNJ, D-NBDNJ, D-AMPDNM and D-MONDNJ at the dosage of 20 μM and after 48 hours were treated for HS and Lamp1 immunofluorescence. Treatment with D-iminosugars had no effect on HDFa and fibroblasts of patients affected by Sanfilippo A and B (MPS IIIA and MPS IIIB) both on HS and lysosome accumulation (Table 4).

Assay [4] concerns control clone (WT) of human neuroblastoma cell line SK-NBE. The assay can be described thus: Heparan sulfate (HS) immunofluorescence in control (WT) SK-NBE clone. The conditions noted are these: 20 μM, 48 hours. It counts as cell-based.
The test system of assay [5] is NAGLU-silenced clone (cl5) of human neuroblastoma cell line SK-NBE. Put plainly: Immunofluorescence against beta-amyloid peptide 1-42 in NAGLU-silenced SK-NBE clone. It counts as cell-based. The conditions noted are these: 20 μM, 48 hours. The method, then: The clone (c15) stably silenced for NAGLU, the causative gene of MPS IIIB, is able to mimic the features of neurodegenerative diseases as it accumulates beta-amyloid fibers in the cytoplasm. In fact, Sanfilippo Syndrome is also defined as “childhood Alzheimer”.
The diseased clone (c15) was grown in the presence of L-DNJ, L-NBDNJ, L-AMPDNM and L-MONDNJ and the corresponding enantiomers D-DNJ, D-NBDNJ, D-AMPDNM and D-MONDNJ at a dosage of 20 μM and after 48 hours were processed by immunofluorescence against the beta-amyloid peptide 1-42. […] On contrary, treatment with the corresponding D-enantiomers has no effect on the reduction of the accumulation of amyloid fibers compared to the untreated clone (mock) (Table 7).

For assay [6], the system named is human adult dermal fibroblasts HDFa. Put plainly: HS and Lamp1 immunofluorescence in control fibroblasts HDFa. It counts as cell-based. The note with it: 20 μM, 48 hours. The method, then: as §4, §6, §7
In assay [7] the test system is fibroblasts of patients affected by Sanfilippo B (MPS IIIB). The assay can be described thus: HS and Lamp1 immunofluorescence in Sanfilippo B patient fibroblasts. It counts as cell-based, human. The conditions noted are these: 20 μM, 48 hours; for Relative fluorescence intensity compared to HDFa, HS / Relative fluorescence intensity compared to HDFa, Lamp1: MPS-IIIB fibroblasts; for Effect on HS and lysosome (Lamp1) accumulation, in words: Sanfilippo B (MPS IIIB) patient fibroblasts.
From the text: as §4, §5, §6, §7

The subject of assay [8] is NAGLU-silenced clone (cl5) of human neuroblastoma cell line SK-NBE. Put plainly: Lamp1 immunofluorescence (lysosomal accumulation) in NAGLU-silenced SK-NBE clone, Sanfilippo B model. It counts as cell-based. The conditions noted are these: 48 hours; for Cells positive for Lamp1 (%) / Relative Lamp1 fluorescence intensity: cl5 clone, 20 μM; for Effect on lysosomal enlargement and accumulation (lysosomal phenotype), in words: clone 5, 20 μM.
From the text: as §1, §2, §3

Assay [9] concerns HeLa tumor epithelial cells. Put plainly: HeLa cell proliferation assay. It counts as cell-based. The note with it: after 48 hours. The method, then: Furthermore, treatment with the L-deoxyminosugars L-DNJ, L-NBDNJ, L-AMPDNM and L-MONDNJ caused a decrease of the number of HeLa cells after 48 hours as shown by the cell proliferation assay reported in Table 6.
For assay [10], the system named is HeLa tumor epithelial cells. Put plainly: HS immunostaining in HeLa cells. The note with it: 48 hours. It counts as cell-based. The method, then:
To test whether treatment with the selected L-deoxyminosugars (L-DNJ, L-NBDNJ, L-AMPDNM and L-MONDNJ) could interfere with HS synthesis we selected a cell line not mutated for NAGLU and highly decorated by heparan sulfate on the cell membrane. For this purpose, HeLa tumor epithelial cells (purchased from ATCC) were cultured for 48 hours in the presence of the selected L-iminosugars and the amount of HS was evaluated by immunostaining.

As for `CCCCN1C[C@@H](O)[C@H](O)[C@@H](O)[C@@H]1CO` [L-NBDNJ•HCl, N-butyl-L-deoxynojirimycin], in assay [1], the “Cells positive for HS (%)” value came to 7.4%; the “Relative HS fluorescence intensity” value came out at 1.13; the “Effect on HS staining / HS accumulation, in words” value is recorded as “dramatic reduction”. In [2], the “Cells positive for Lamp1 (%)” value came to 2.6% and the “Relative Lamp1 fluorescence intensity” value is reported as 1.07. In [3], the “Relative fluorescence intensity compared to HDFa, HS” value (from here on “Relative fluorescence intensity … HS”) is 1.7; the “Relative fluorescence intensity compared to HDFa, Lamp1” value was 1.9; the “Effect on HS and lysosome (Lamp1) accumulation, in words” value (shortened to “Effect on HS and lysosome”) is recorded as “strong reduction”. Moreover, in assay [4], the “Cells positive for HS (%)” value is reported as 2.5% and the “Relative HS fluorescence intensity” value was 0.96. For the same molecule, the “Relative amyloid fluorescence intensity” value in assay [5] was 0.01. For the same molecule, in assay [6], the “Relative fluorescence intensity … HS” value is recorded as 1.0 and the “Relative fluorescence intensity compared to HDFa, Lamp1” value came out at 1.0. Also, in assay [7], the “Relative fluorescence intensity … HS” value is 1.5; the “Relative fluorescence intensity compared to HDFa, Lamp1” value is on record as 1.0; the “Effect on HS and lysosome” value was “strong reduction”. For the same molecule, in [8], the “Cells positive for Lamp1 (%)” value was 20%; the “Relative Lamp1 fluorescence intensity” value stood at 0.97; the “Effect on lysosomal enlargement and accumulation (lysosomal phenotype), in words” value (“Effect … (lysosomal phenotype), in words” for short) is given as “dramatic reduction”. In assay [9], the Cell number is 3.6 · 10^5 and the “Effect on the number of HeLa cells, in words” value (“Effect on the number” for short) was “decrease”. In assay [10], the “Effect on HS accumulation on the HeLa cell membrane, in words” value (“Effect on HS accumulation” for short) is given as “strong reduction” and the “Relative HS fluorescence intensity” value is reported as 0.26.

Consider `OC[C@H]1[C@H](O)[C@@H](O)[C@H](O)CN1CCCCCOCC12CC3C[C@H](C1)C[C@H](C3)C2` [L-AMPDNM•HCl, N-adamantanomethoxypentyl L-DNJ], for which, in [1], the “Cells positive for HS (%)” value was found to be 5.1%; the “Relative HS fluorescence intensity” value is 1.19; the “Effect on HS staining / HS accumulation, in words” value is “dramatic reduction”. In assay [2], the “Cells positive for Lamp1 (%)” value was determined as 2.5% and the “Relative Lamp1 fluorescence intensity” value is 1.08. For the same molecule, in assay [3], the “Relative fluorescence intensity … HS” value is recorded as 1.5; the “Relative fluorescence intensity compared to HDFa, Lamp1” value is 2.2; the “Effect on HS and lysosome” value was “strong reduction”. In [4], the “Cells positive for HS (%)” value amounted to 2.3% and the “Relative HS fluorescence intensity” value was determined as 0.94. Further, the “Relative amyloid fluorescence intensity” value in assay [5] came to 0.02. Also, in assay [6], the “Relative fluorescence intensity … HS” value is 1.0 and the “Relative fluorescence intensity compared to HDFa, Lamp1” value is on record as 1.0. In assay [7], the “Relative fluorescence intensity … HS” value worked out at 1.0; the “Relative fluorescence intensity compared to HDFa, Lamp1” value is listed as 1.0; the “Effect on HS and lysosome” value is listed as “strong reduction”. In assay [8], the “Cells positive for Lamp1 (%)” value turned out to be 18%; the “Relative Lamp1 fluorescence intensity” value is on record as 0.99; the “Effect … (lysosomal phenotype), in words” value is “dramatic reduction”. In assay [9], the Cell number is on record as 3.7 · 10^5 and the “Effect on the number” value was “decrease”. Besides, in assay [10], the “Effect on HS accumulation” value is listed as “strong reduction” and the “Relative HS fluorescence intensity” value amounted to 0.12.

As for `OC[C@@H]1NC[C@@H](O)[C@H](O)[C@H]1O` [L-DNJ•HCl], in assay [1], the “Cells positive for HS (%)” value amounted to 5.1%; the “Relative HS fluorescence intensity” value was 1.20; the “Effect on HS staining / HS accumulation, in words” value is reported as “dramatic reduction”. Also, in [2], the “Cells positive for Lamp1 (%)” value is 2.8% and the “Relative Lamp1 fluorescence intensity” value was 1.00. Besides, in [3], the “Relative fluorescence intensity … HS” value is recorded as 1.0; the “Relative fluorescence intensity compared to HDFa, Lamp1” value came to 1.8; the “Effect on HS and lysosome” value is “strong reduction”. Moreover, in [4], the “Cells positive for HS (%)” value was 2.6% and the “Relative HS fluorescence intensity” value is reported as 0.94. Further, the “Relative amyloid fluorescence intensity” value in [5] is given as 0.01. In [6], the “Relative fluorescence intensity … HS” value was determined as 1.0 and the “Relative fluorescence intensity compared to HDFa, Lamp1” value was 1.0. In addition, in assay [7], the “Relative fluorescence intensity … HS” value worked out at 1.0; the “Relative fluorescence intensity compared to HDFa, Lamp1” value is recorded as 1.0; the “Effect on HS and lysosome” value was “strong reduction”. Further, in [8], the “Cells positive for Lamp1 (%)” value turned out to be 25%; the “Relative Lamp1 fluorescence intensity” value was 0.95; the “Effect … (lysosomal phenotype), in words” value is reported as “dramatic reduction”. Besides, in [9], the Cell number is reported as 2.9 · 10^5 and the “Effect on the number” value is given as “decrease”. Besides, in [10], the “Effect on HS accumulation” value is “strong reduction” and the “Relative HS fluorescence intensity” value was determined as 0.24.
